From patent publication US20240216589A1, “DRUG DELIVERY COMPOSITIONS AND METHODS OF CONTROLLING DRUG DELIVERY RATES OF SUBCUTANEOUS SENSORS” (ABBOTT DIABETIS CARE INC., priority 2022, published 2024)

Test: Dex solubility in the polyvinylpyridine-ethanol:water (95:5 by volume) solution
Type: physicochemical
Method: FIG. 33 illustrates the Dex solubility in the polyvinylpyridine-ethanol:water (95:5 by volume) solution according to certain embodiments of the present disclosure. The solubility of Dex in the PVP-ethanol:water solution was measured. For the solutions containing 0 wt %-30 wt % of Dex relative to the weight amount of PVP polymer, after the solutions were vortexed/sonicated within 15 minutes, the solutions became clear. […] Therefore, the drug delivery composition can include up to 40 wt % of Dex relative to the amount of copolymer to make a clear drug delivery composition.

solution clarity (0 wt %-30 wt % of Dex relative to PVP, vortexed/sonicated within 15 minutes): became clear
solution clarity (40 wt % of Dex relative to PVP, mixing overnight on the nutator): became clear after mixing overnight
solution clarity (50 wt % of Dex relative to PVP, mixing overnight on the nutator): did not become clear
maximum Dex relative to the amount of copolymer to make a clear drug delivery composition (ethanol:water 95:5 by volume): up to 40 wt %
SMILES: C[C@@H]1C[C@H]2[C@@H]3CCC4=CC(=O)C=C[C@]4(C)[C@@]3(F)[C@@H](O)C[C@]2(C)[C@@]1(O)C(=O)CO [Dex, dexamethasone]
